Laboratory results as given in article PMC4772679 (Environmental toxicology and chemistry / SETAC, 2015).
Where two headings read alike, the source gives them in different places. One block for each compound: values may come before it.

Experiments:
BG1LucERβc9 cells [1] = test: Antagonism of agonist-induced luciferase activity in BG1LucERβc9 cells; assay type: cell-based, human; conditions: for inhibition of E2-inducible reporter gene expression in BG1LucERβc9 cells: Supplemental Figure S5
BG1Luc4E2 cells [2] = test: Luciferase induction in stably transfected BG1Luc4E2 cells; assay type: cell-based, human; conditions: for MDL (minimal detection limit) [M], BG1Luc4E2 / EC50 / luciferase activity in BG1Luc4E2 cells, initial library screen: 24 h; for EC50: read-out: EC50 [M], BG1Luc4E2; for Maximum Induction (RLU), BG1Luc4E2: at 30 µM Genistein, 10 µM Br-ERβ-041, 0.1 nM E2, 1 µM PPT; for luciferase activity in BG1Luc4E2 cells, initial library screen: 10 µM, normalized to 1 nM E2, single screen in triplicate
BG1LucERβc9 cells [3] = test: Luciferase induction in stably transfected BG1LucERβc9 cells; assay type: cell-based, human; conditions: for MDL (minimal detection limit) [M], BG1LucERβc9 / EC50: 24 h; for EC50: read-out: EC50 [M], BG1LucERβc9; for Maximum Induction (RLU), BG1LucERβc9: at 30 µM Genistein, 10 µM Br-ERβ-041, 0.1 nM E2, 1 µM PPT
ERα = target: T1, ERα (Homo sapiens, UniProt P03372); test: ER-responsive luciferase reporter; assay type: cell-based; conditions: read-out: EC50 [M], ERα; SKBR3 cells, ERα expression plasmid, 24 h, mean ± SD of three experiments
T1 sequence (P03372 1-595): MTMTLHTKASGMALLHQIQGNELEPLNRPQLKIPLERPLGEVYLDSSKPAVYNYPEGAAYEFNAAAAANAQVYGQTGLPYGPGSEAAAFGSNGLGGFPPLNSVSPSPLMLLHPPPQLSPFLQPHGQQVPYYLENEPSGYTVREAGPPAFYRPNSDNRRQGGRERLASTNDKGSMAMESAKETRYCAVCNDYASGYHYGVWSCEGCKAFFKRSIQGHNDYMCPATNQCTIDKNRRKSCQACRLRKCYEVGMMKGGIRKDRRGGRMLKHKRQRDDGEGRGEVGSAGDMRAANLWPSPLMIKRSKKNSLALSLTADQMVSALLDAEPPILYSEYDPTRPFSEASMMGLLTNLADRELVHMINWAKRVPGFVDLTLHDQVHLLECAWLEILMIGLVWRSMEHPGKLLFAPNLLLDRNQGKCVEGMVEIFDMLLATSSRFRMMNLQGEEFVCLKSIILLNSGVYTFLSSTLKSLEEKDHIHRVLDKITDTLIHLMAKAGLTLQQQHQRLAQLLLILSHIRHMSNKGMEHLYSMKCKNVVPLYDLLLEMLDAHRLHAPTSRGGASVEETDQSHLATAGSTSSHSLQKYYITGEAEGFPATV

ERβ = ERβ (Homo sapiens, UniProt Q92731); test: ER-responsive luciferase reporter; assay type: cell-based; conditions: SKBR3 cells, ERβ expression plasmid, 24 h, mean ± SD of three experiments
ERβ, sequence (Q92731 whole entry): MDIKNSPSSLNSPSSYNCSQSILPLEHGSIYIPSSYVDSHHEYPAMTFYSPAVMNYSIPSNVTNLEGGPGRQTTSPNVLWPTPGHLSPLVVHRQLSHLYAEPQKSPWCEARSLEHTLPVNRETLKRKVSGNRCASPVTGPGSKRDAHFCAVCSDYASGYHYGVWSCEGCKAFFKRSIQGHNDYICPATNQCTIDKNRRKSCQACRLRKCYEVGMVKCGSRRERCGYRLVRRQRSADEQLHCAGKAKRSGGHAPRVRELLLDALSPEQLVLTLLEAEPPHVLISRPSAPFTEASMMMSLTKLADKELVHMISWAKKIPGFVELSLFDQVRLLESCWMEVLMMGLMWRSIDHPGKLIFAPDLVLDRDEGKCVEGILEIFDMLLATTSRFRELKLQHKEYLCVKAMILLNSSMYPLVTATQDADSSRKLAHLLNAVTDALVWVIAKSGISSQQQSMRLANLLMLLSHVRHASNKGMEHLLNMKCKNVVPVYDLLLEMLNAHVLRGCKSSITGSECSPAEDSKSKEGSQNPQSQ

BG1Luc4E2 cells [4] = test: Antagonism of agonist-induced luciferase activity in BG1Luc4E2 cells; assay type: cell-based, human; conditions: p < 0.05, Student's t-test
[5] = mean ± SD of 8–16 experiments, genistein and Br-ERβ-041 at 50% of maximum E2 activity

SMILES: CC/C(=C(\c1ccc(O)cc1)c1ccc(OCCN(C)C)cc1)c1ccccc1 [Chemical 4-OHT, 4-hydroxy tamoxifen]
inhibition of E2-inducible reporter gene expression in BG1LucERβc9 cells (BG1LucERβc9 cells [1]): inhibit E2-inducible reporter gene expression

EC50 (BG1Luc4E2 cells [2]; Homo sapiens): 1.6e-11 M | EC50 (BG1LucERβc9 cells [3]; Homo sapiens): 1.3e-11 M
SMILES: C[C@]12CC[C@@H]3c4ccc(O)cc4CC[C@H]3[C@@H]1CC[C@@H]2O [Chemical E2, 17β-estradiol]
MDL (minimal detection limit) [M], BG1Luc4E2 (BG1Luc4E2 cells [2]): 3e-12 M | Maximum Induction (RLU), BG1Luc4E2 (BG1Luc4E2 cells [2]): 10,594 ± 250 RLU | MDL (minimal detection limit) [M], BG1LucERβc9 (BG1LucERβc9 cells [3]): 1e-12 M | Maximum Induction (RLU), BG1LucERβc9 (BG1LucERβc9 cells [3]): 5,236 ± 71 RLU

SMILES: CCNc1nc(Cl)nc(NC(C)(C)C#N)n1 [Chemical P12, cyanazine]
luciferase activity in BG1Luc4E2 cells, initial library screen (BG1Luc4E2 cells [2]): not inducing significant luciferase activity above background

SMILES: CC(C)(c1ccc(O)cc1)c1ccc(O)cc1 [Chemical P159, bisphenol A]
luciferase activity in BG1Luc4E2 cells, initial library screen (BG1Luc4E2 cells [2]): high activity

SMILES: O=c1c(-c2ccc(O)cc2)coc2cc(O)cc(O)c12 [Genistein, genistein]
MDL (minimal detection limit) [M], BG1Luc4E2 (BG1Luc4E2 cells [2]): 1e-07 M | ERα-dependent reporter gene induction in BG1Luc4E2 cells at low concentration (BG1Luc4E2 cells [2]; Br-ERβ-041 31.6 nM, genistein 10 nM, preliminary studies, data not shown): failed to induce | EC50 (BG1Luc4E2 cells [2]; Homo sapiens): 1.7e-07 M | Maximum Induction (RLU), BG1Luc4E2 (BG1Luc4E2 cells [2]): 17,623 ± 575 RLU | MDL (minimal detection limit) [M], BG1LucERβc9 (BG1LucERβc9 cells [3]): 1e-08 M | EC50 (BG1LucERβc9 cells [3]; Homo sapiens): 2e-08 M | Maximum Induction (RLU), BG1LucERβc9 (BG1LucERβc9 cells [3]): 8,804 ± 306 RLU

EC50 (ERα): 2.5e-10 M | EC50 [M], ERβ (ERβ): No induction | EC50 (BG1Luc4E2 cells [2]; [5]): 6.7e-10 M | EC50 (BG1LucERβc9 cells [3]; [5]): 3.2e-09 M
SMILES: CCCc1c(-c2ccc(O)cc2)nn(-c2ccc(O)cc2)c1-c1ccc(O)cc1 [PPT, 4,4’,4”-(4-Proply-[1H]-pyrazole-1,3,5-triyl)trisphenol]
MDL (minimal detection limit) [M], BG1Luc4E2 (BG1Luc4E2 cells [2]): 1e-10 M | Maximum Induction (RLU), BG1Luc4E2 (BG1Luc4E2 cells [2]): 11,422 ± 356 RLU | MDL (minimal detection limit) [M], BG1LucERβc9 (BG1LucERβc9 cells [3]): 1e-10 M | Maximum Induction (RLU), BG1LucERβc9 (BG1LucERβc9 cells [3]): 7,017 ± 188 RLU

SMILES: C[C@]12CC[C@@H]3c4ccc(O)cc4C[C@@H](CCCCCCCCC[S+]([O-])CCCC(F)(F)C(F)(F)F)[C@H]3[C@@H]1CC[C@@H]2O (stereo partly drawn) [fulvestrant, Fulvestrant]
inhibition of E2-inducible reporter gene expression in BG1LucERβc9 cells (BG1LucERβc9 cells [1]): inhibit E2-inducible reporter gene expression | concentration-dependent antagonism of E2-induced luciferase activity, BG1LucERβc9 vs BG1Luc4E2 cells (BG1LucERβc9 cells [1]; comparison of both cell lines): comparable | antagonism of Br-ERβ-041 induced activity in BG1Luc4E2 cells versus BG1LucERβc9 cells (BG1Luc4E2 cells [4]): significantly more potent antagonist
